Test results as given in ChEMBL document CHEMBL1152560, “Substituted 2-arylbenzothiazoles as kinase inhibitors: hit-to-lead optimization” (Bioorg Med Chem, 2009).

Columns and labels:
[1] = target: Ribosomal protein S6 kinase alpha-6 (Homo sapiens) (UniProt Q9UK32); test: Residual activity of RPS6KA6 at 10 uM by microplate scintillation counting
[2] = target: Ephrin type-A receptor 2 (Homo sapiens) (UniProt P29317); test: Residual activity of EPHA2 at 1 uM by microplate scintillation counting
[3] = target: T1, Ephrin type-B receptor 3 (Homo sapiens) (UniProt P54753); test: Residual activity of EPHB3 at 10 uM by microplate scintillation counting
T1 sequence (whole entry): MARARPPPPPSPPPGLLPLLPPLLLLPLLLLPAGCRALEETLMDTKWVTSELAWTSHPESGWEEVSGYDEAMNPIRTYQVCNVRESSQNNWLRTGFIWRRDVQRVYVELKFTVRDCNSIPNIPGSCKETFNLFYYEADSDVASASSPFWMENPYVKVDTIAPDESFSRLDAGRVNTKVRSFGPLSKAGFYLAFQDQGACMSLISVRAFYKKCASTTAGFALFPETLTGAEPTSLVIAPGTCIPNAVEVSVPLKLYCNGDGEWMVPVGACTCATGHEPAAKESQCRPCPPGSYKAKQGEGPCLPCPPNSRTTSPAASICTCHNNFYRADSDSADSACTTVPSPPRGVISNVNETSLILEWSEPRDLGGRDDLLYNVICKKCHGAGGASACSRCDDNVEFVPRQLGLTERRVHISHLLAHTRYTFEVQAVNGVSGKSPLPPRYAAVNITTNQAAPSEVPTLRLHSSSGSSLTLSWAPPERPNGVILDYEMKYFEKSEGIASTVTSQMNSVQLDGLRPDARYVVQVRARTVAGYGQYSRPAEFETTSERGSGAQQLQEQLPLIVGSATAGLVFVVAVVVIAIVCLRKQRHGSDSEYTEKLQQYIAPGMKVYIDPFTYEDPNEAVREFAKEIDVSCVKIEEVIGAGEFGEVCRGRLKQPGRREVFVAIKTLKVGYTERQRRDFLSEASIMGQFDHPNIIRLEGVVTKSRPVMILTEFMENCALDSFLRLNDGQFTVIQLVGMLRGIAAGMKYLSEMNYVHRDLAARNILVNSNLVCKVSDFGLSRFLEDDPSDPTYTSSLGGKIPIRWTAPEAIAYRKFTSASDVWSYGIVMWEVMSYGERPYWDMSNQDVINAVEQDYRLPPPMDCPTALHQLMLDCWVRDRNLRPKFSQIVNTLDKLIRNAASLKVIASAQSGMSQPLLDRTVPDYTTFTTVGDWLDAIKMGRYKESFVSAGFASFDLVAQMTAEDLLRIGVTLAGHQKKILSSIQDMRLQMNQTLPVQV

[4] = target: T2, Muscle, skeletal receptor tyrosine-protein kinase (Homo sapiens) (UniProt O15146); test: Residual activity of MUSK at 1 uM by microplate scintillation counting
T2 sequence (whole entry): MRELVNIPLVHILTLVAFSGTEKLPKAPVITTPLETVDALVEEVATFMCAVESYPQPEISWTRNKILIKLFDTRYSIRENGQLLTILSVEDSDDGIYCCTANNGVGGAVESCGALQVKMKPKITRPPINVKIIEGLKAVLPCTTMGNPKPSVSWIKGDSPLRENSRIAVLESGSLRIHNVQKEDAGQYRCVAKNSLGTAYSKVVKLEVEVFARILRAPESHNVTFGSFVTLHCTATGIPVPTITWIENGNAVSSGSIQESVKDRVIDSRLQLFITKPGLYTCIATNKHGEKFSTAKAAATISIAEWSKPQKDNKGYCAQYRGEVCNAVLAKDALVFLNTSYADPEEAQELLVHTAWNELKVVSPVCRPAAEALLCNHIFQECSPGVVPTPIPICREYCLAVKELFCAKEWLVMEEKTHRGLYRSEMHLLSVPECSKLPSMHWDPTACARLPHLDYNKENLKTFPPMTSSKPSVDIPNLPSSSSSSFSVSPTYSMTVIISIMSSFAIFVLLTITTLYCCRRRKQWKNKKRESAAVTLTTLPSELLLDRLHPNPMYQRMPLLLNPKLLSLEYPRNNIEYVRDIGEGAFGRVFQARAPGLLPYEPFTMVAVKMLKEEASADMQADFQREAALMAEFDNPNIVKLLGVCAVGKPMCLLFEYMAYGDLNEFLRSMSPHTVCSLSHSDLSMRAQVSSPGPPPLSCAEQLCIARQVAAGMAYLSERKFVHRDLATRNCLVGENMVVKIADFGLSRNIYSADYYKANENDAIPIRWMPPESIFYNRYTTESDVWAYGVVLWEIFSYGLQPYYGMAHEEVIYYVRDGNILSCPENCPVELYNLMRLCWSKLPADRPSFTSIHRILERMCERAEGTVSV

[5] = target: Serine/threonine-protein kinase MARK1 (Homo sapiens) (UniProt Q9P0L2); test: Residual activity of MARK1 at 10 uM by microplate scintillation counting
[6] = target: T3, Ephrin type-B receptor 4 (Homo sapiens) (UniProt P54760); test: Residual activity of EPHB4 at 0.1 uM by microplate scintillation counting
T3 sequence (whole entry): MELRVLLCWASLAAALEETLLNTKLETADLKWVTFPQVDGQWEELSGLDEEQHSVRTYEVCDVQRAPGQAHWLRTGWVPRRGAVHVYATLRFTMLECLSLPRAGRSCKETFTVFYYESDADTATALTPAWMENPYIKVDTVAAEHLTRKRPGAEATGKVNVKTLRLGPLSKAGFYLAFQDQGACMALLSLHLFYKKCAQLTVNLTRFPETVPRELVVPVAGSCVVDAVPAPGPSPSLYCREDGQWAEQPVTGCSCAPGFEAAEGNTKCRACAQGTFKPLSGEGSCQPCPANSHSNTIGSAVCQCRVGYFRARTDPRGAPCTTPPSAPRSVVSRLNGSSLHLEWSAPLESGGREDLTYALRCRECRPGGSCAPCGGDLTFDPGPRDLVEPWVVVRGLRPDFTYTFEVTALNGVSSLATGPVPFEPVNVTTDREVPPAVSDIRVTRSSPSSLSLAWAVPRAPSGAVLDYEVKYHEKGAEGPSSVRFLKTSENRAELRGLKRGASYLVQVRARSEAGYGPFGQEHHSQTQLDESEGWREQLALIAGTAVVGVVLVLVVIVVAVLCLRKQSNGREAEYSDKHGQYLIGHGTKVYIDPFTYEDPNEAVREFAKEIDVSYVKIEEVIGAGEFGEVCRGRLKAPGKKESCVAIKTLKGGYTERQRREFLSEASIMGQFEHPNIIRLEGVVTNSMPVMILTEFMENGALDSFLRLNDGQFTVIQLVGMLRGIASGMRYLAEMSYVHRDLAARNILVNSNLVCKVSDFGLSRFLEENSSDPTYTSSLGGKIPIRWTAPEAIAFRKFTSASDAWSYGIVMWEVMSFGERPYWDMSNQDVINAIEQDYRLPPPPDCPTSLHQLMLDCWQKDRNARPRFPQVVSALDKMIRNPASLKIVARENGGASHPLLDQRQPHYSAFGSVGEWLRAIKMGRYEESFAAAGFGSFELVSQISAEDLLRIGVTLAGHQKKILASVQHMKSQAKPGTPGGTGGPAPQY

Sequence of Ephrin type-A receptor 2 (Homo sapiens) (P29317 whole entry): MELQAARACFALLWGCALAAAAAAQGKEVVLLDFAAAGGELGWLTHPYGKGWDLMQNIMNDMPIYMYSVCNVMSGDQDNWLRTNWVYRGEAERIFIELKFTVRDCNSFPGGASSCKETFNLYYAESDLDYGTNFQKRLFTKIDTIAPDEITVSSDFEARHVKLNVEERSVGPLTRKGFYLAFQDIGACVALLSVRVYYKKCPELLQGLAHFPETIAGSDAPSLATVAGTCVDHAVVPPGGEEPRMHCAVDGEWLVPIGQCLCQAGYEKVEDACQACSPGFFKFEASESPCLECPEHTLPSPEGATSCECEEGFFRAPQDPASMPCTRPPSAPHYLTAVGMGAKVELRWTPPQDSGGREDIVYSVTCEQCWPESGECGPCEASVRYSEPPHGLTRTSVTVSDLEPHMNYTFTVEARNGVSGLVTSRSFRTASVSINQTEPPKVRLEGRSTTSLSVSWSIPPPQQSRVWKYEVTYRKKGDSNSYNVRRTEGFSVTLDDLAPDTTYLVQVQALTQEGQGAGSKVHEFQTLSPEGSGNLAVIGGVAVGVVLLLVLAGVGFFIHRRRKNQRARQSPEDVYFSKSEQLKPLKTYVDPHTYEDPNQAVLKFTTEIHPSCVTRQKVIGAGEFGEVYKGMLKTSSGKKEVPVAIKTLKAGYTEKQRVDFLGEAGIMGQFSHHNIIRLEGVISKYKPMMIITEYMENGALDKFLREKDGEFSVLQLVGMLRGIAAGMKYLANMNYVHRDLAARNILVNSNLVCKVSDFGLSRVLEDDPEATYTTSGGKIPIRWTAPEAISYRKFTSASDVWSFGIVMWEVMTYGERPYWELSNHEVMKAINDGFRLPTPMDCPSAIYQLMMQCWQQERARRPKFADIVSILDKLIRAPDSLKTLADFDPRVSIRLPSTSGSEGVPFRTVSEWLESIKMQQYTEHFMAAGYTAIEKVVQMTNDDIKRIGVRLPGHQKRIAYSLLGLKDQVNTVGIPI
Sequence of Serine/threonine-protein kinase MARK1 (Homo sapiens) (Q9P0L2 whole entry, looked up): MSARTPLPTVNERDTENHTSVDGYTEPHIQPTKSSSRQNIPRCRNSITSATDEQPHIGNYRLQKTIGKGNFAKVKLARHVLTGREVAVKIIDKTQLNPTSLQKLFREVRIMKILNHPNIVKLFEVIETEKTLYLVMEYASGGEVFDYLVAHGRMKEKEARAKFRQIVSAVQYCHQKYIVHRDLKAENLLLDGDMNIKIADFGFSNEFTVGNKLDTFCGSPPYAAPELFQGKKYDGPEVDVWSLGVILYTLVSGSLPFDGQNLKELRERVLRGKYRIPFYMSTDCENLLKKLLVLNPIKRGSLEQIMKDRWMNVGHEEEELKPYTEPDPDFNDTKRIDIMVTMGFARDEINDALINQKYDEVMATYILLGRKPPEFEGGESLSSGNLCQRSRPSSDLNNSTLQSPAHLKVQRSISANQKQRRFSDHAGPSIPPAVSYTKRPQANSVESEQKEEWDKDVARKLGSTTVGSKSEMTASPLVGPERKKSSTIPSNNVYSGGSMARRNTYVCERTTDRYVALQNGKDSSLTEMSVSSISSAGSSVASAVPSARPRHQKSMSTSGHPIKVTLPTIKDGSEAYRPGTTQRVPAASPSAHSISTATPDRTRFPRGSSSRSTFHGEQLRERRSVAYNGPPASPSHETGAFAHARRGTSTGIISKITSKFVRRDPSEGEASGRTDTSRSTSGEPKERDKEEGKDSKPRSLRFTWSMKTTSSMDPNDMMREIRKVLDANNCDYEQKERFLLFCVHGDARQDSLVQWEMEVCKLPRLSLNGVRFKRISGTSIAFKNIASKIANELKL
Sequence of Ribosomal protein S6 kinase alpha-6 (Homo sapiens) (Q9UK32 whole entry): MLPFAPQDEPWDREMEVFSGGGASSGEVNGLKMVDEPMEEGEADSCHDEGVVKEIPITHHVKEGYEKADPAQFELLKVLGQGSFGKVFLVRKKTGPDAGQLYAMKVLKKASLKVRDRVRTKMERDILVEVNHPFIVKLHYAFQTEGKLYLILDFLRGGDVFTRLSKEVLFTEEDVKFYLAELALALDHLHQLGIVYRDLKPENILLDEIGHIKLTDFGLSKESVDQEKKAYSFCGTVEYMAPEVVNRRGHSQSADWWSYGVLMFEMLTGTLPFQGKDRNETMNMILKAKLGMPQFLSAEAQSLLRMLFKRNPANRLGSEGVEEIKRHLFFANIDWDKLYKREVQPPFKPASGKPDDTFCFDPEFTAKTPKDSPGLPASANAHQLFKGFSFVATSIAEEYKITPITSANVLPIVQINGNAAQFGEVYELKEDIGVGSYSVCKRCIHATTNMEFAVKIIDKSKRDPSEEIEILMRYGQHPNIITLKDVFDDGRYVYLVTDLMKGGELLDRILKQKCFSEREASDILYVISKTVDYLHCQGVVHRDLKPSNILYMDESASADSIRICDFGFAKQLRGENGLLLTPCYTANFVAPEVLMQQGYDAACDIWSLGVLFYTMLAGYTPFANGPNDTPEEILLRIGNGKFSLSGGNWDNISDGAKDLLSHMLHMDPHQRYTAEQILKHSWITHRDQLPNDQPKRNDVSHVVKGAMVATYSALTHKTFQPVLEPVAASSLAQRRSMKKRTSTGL

SMILES | residual activity [1] [%] | residual activity [2] [%] | residual activity [3] [%] | residual activity [4] [%] | residual activity [5] [%] | residual activity [6] [%]
COc1cc2c(Oc3ccc(-c4nc5ccccc5s4)cc3)ncnc2cc1OCCCN1CCN(C)CC1 | 35 | 111 | 372 | 89 | 124 | 108
COc1cc2c(Oc3ccc(-c4nc5ccccc5s4)cc3F)ncnc2cc1OCCCN1CCN(C)CC1 | 32 | 109 | 105 | 88 | 112 | 98
COc1cc2c(Oc3ccc(-c4nc5ccccc5s4)cc3)ncnc2cc1OCCCN1CCCC1 | 50 | 97 | 227 | 94 | 112 | 98
